Measured values from patent publication US12115178B2, “Acylated active agents and methods of their use for the treatment of autoimmune disorders” (Flagship Pioneering Innovations V, Inc., priority 2018, dated 2024).

Key:
[1] = test system: DSS Colitis; test: In vivo DSS colitis; set-up: species or system Swiss Webster mice; details: 100 mg/kg once a day oral gavage, study day 0 through 7, compared to the vehicle control
From the text: Specific pathogen-free female Swiss Webster mice, 6-8 weeks old, weighing 16-20 g were obtained from Harlan. Mice were randomized into treatment groups (n=10) based on body weight on study day −2. From study day 0 through 5, all groups were given 3% dextran sulfate sodium (DSS, Spectrum, Lot #2DC0020) in drinking water. On study day 5 through, drinking water was switched to water without DSS until the study end on day 7. From study day 0 through 7, the negative control (vehicle), positive control (cyclosporine A), and the treatment groups were given vehicle (1% Methylcellulose (Sigma, 400 cP)), cyclosporine A (70 mg/kg), and compound 44 (100 mg/kg) once a day until study day 7 via oral gavage. On study day 7, animals were anesthetized with Isoflurane and bled to exsanguination followed by cervical dislocation. The entire colon was removed and the overall efficacy of compound 44 was assessed based on colon histopathology. […] Statistical analysis was performed with GraphPad Prism (GraphPad Software). Mann-Whitney U test was used to assess significance between the vehicle control and each treatment group.

[2] = test system: adoptive T-cell transfer mice; test: Adoptive T-cell transfer study; assay type: in vivo, CB-17 SCID mice; details: compound 44 100 mg/kg, olsalazine 30 mg/kg, through day 42, compared to the vehicle control
From the text: On study day 0, naïve T-cells were obtained from the spleen of 11 to 12 week-old Balb/C mice using the SCID Cell Separation Protocol with the following labelling scheme; CD4+CD45RB^highCD25− and CD4+CD45RB^lowCD25+ cell (APC CD4 Antibody (100412), FITC CD45RB Antibody (103306), PE CD25 Antibody (101904), from BioLegend, San Diego, CA, and CD4 cell enrichment kit: 19752A, Stemcell Technologies, Cambridge, MA) and the 4×10^5 of CD4^+CD45RB^highCD25− cells were transferred 6-7 weeks old CB-17 SCID mice. Recipient mice were randomized based on their body weight (n=12 mice/group), and received […] of vehicle (0.5% methyl-cellulose) (vehicle control), 0.5 mg per mouse of anti-IL-12 (positive control), 30 mg/kg of olsalazine (positive treatment group), and 100 mg/kg of compound 44 (compound treatment group) through day 42. On day 42, animals were anesthetized with Isoflurane and bled to exsanguination followed by cervical dislocation. The entire colon was removed and the overall efficacy of compound 44 was assessed based on colon length and weight per length. […] Statistical analysis was performed with GraphPad Prism (GraphPad Software). Mann-Whitney U test was used to assess significance between the vehicle control and each treatment group.

[3] = Detection of mesalamine and compound 44 in feces after dosing with compound 44; assay type: in vivo, Swiss Webster mice; details: detected after dosing with Compound 44, oral gavage 10 mg/mL suspension at 10 mL/kg, mice
Method: Samples were frozen and stored at −70° C. until analysis. Quantification of mesalamine and compound 44 were done via bioanalysis using LC-MS/MS.

[4] = Detection of compound 44 in whole blood after dosing with compound 44; assay type: in vivo, Swiss Webster mice; details: detected after dosing with Compound 44, oral gavage 10 mg/mL suspension at 10 mL/kg, mice
Method: Whole blood (125 uL) was collected submandibular and transferred to chilled K2EDTA tubes pre-filled with 125 uL of acetonitrile and frozen at −70° C. until analysis. Mice (1-3) were sampled at 5 min, 1 hr, and 8 hr. Mice (4-6) were sampled at 15 min, 2 hours and 24 hours. Mice (7-9) were sampled at 30 min and 4 hrs. Quantification of compound 44 was done via bioanalysis using LC-MS/MS.

CCCC(=O)O[C@H]1[C@H](OC(=O)CCC)COC(Oc2ccc(N)cc2C(=O)O)[C@@H]1OC(=O)CCC.Cl (stereo in doubt) [Compound 44, 5-amino-2-(((2S,3R,4S,5R)-3,4,5-tris(butyryloxy)tetrahydro-2H-pyran-2-yl)oxy)benzoic acid hydrochloride]
mucosal thickness (colon histopathology, FIG. 2) [1]: significant reduction in mucosal thickness | colon length (FIG. 3A) [2]: significant increased | colon weight per length (FIG. 3B) [2]: reduced | Concentration, uM (compound 44) [3]: 10.72 µM | Concentration, uM (compound 44) [4]: 0.68 µM
